Values quoted from earlier work in US20080221211A1, “METHOD OF TREATMENT OF NEUROLOGICAL INJURY OR CANCER BY ADMINISTRATION OF DICHLOROACETATE” (priority 2007, published 2008).

Key:
cancer cell lines = settings: restored mitochondrial function and apoptosis
tumors = settings: rat model
[1] = in vivo
[2] = system: infarct size after stroke; settings: rat; given within 2.25 hours of a stroke
[3] = system: cytochome oxidase activity in primary neurons
infarct size = settings: rat pMCAo model; infusion

O=C(O)C(Cl)Cl [DCA, dichloroacetic acid]
effect on cancer cells in vitro (cancer cell lines): killing cancer cells in vitro
effect on tumors in rats (tumors): shrinking the tumors in rats
reported adverse effect [1]: neuropathy

CC(C)(C)[N+]([O-])=Cc1ccc(S(=O)(=O)[O-])cc1S(=O)(=O)[O-].[Na+].[Na+] [NXY-059]
effect on infarct size [2]: reduces infarct size

NC1=N[C@H](O)[C@H]2[C@H]3O[C@]4(O)O[C@@H]([C@@H](O)[C@@]2(N1)[C@@H]4O)[C@]3(O)CO [TTX, tetrodotoxin]
effect on cytochrome oxidase activity [3]: reduces cytochome oxidase activity

VEGF
effect on infarct size (infarct size): reduction of infarct size
